Laboratory results reported in PubChem BioAssay (NCI).
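Grown in 96-well plates, cells were treated for 48 hours with each compound at five concentrations. Insufficient inhibition: endpoint recorded as highest concentration tested. At the GI50, growth is halved. TGI marks complete inhibition of growth.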

Experiments:
Assay in all cases: DTP human tumour cell line panel, 48 h
786-0 renal = tested on: 786-0 renal
A498 renal = tested on: A498 renal
A549 NSCLC = tested on: A549 NSCLC
ACHN renal = tested on: ACHN renal
BT-549 breast = tested on: BT-549 breast
CAKI-1 renal = tested on: CAKI-1 renal
CCRF-CEM leukemia = tested on: CCRF-CEM leukemia
COLO 205 colon = tested on: COLO 205 colon
DU-145 prostate = tested on: DU-145 prostate
EKVX NSCLC = tested on: EKVX NSCLC
HCC-2998 colon = tested on: HCC-2998 colon
HCT-116 colon = tested on: HCT-116 colon
HCT-15 colon = tested on: HCT-15 colon
HL-60(TB) leukemia = tested on: HL-60(TB) leukemia
HOP-92 NSCLC = tested on: HOP-92 NSCLC
HS 578T breast = tested on: HS 578T breast
HT29 colon = tested on: HT29 colon
IGROV1 ovarian = tested on: IGROV1 ovarian
K-562 leukemia = tested on: K-562 leukemia
KM12 colon = tested on: KM12 colon
LOX IMVI melanoma = tested on: LOX IMVI melanoma
M14 melanoma = tested on: M14 melanoma
MALME-3M melanoma = tested on: MALME-3M melanoma
MCF7 breast = tested on: MCF7 breast
MDA-MB-231 breast = tested on: MDA-MB-231 breast
MDA-MB-435 = tested on: MDA-MB-435
MOLT-4 leukemia = tested on: MOLT-4 leukemia
NCI-H226 lung = tested on: NCI-H226 lung

Structure (SMILES): Fc1ccc2c(c1)C1=C(CCC2)C(c2ccc(Cl)cc2)NC(=S)N1 (stereo not given)
- GI50 (786-0 renal): 25 µM
- TGI (786-0 renal): > 100 µM
- GI50 (A498 renal): 43.6 µM
- TGI (A498 renal): > 100 µM
- GI50 (A549 NSCLC): 20.7 µM
- TGI (A549 NSCLC): > 100 µM
- GI50 (ACHN renal): 29.5 µM
- TGI (ACHN renal): > 100 µM
- GI50 (BT-549 breast): > 100 µM
- TGI (BT-549 breast): > 100 µM
- GI50 (CAKI-1 renal): 51.7 µM
- TGI (CAKI-1 renal): > 100 µM
- GI50 (CCRF-CEM leukemia): 31.8 µM
- TGI (CCRF-CEM leukemia): > 100 µM
- GI50 (COLO 205 colon): 62.1 µM
- TGI (COLO 205 colon): > 100 µM
- GI50 (DU-145 prostate): 49.1 µM
- TGI (DU-145 prostate): > 100 µM
- GI50 (EKVX NSCLC): 32.8 µM
- TGI (EKVX NSCLC): > 100 µM
- GI50 (HCC-2998 colon): 43.2 µM
- TGI (HCC-2998 colon): > 100 µM
- GI50 (HCT-116 colon): 26.1 µM
- TGI (HCT-116 colon): > 100 µM
- GI50 (HCT-15 colon): 26.2 µM
- TGI (HCT-15 colon): > 100 µM
- GI50 (HL-60(TB) leukemia): 7.51 µM
- TGI (HL-60(TB) leukemia): > 100 µM
- GI50 (HOP-92 NSCLC): 16.7 µM
- TGI (HOP-92 NSCLC): 73.9 µM
- GI50 (HS 578T breast): 50.5 µM
- TGI (HS 578T breast): > 100 µM
- GI50 (HT29 colon): 49.9 µM
- TGI (HT29 colon): > 100 µM
- GI50 (IGROV1 ovarian): 10.3 µM
- TGI (IGROV1 ovarian): > 100 µM
- GI50 (K-562 leukemia): 32.4 µM
- TGI (K-562 leukemia): > 100 µM
- GI50 (KM12 colon): 32.3 µM
- TGI (KM12 colon): > 100 µM
- GI50 (LOX IMVI melanoma): 36 µM
- TGI (LOX IMVI melanoma): > 100 µM
- GI50 (M14 melanoma): 40.9 µM
- TGI (M14 melanoma): > 100 µM
- GI50 (MALME-3M melanoma): 22.6 µM
- TGI (MALME-3M melanoma): 80.2 µM
- GI50 (MCF7 breast): 26.6 µM
- TGI (MCF7 breast): > 100 µM
- GI50 (MDA-MB-231 breast): 24.2 µM
- TGI (MDA-MB-231 breast): > 100 µM
- GI50 (MDA-MB-435): 40.9 µM
- TGI (MDA-MB-435): > 100 µM
- GI50 (MOLT-4 leukemia): 24.5 µM
- TGI (MOLT-4 leukemia): > 100 µM
- GI50 (NCI-H226 lung): 35.2 µM
